Source: the supplement of paper PMC10307832

Tests used:
Assay in all cases: relative viability (nuclei count vs DMSO), 5 days (fraction); higher = more cells survive
BMX-IN-1 + OSI-027 = compound: C=CC(=O)Nc1cc(-n2c(=O)ccc3cnc4ccc(-c5ccc(NS(C)(=O)=O)cc5)cc4c32)ccc1C [BMX-IN-1] + COc1cccc2cc(-c3nc([C@H]4CC[C@H](C(=O)O)CC4)n4ncnc(N)c34)[nH]c12 [OSI-027] (partner 0.5 µM)
Summary of the method: (§1)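 Lung cancer cell lines in 1536-well plates were dosed by pin tool the day after seeding, either with one drug alone or with a fixed anchor-drug dose plus five library-drug doses (not always all listed) in √10 steps. After 5 days, cells were fixed and their nuclei stained in one step (final 0.05% Triton X-100, 1% formaldehyde, 1 ug/ml Hoechst), then counted on 4× images. Relative viability is the nuclei count in treated wells divided by that in vehicle wells. Values are medians of duplicate plates.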

BMX-IN-1 + Luminespib = compound: C=CC(=O)Nc1cc(-n2c(=O)ccc3cnc4ccc(-c5ccc(NS(C)(=O)=O)cc5)cc4c32)ccc1C [BMX-IN-1] + CCNC(=O)c1noc(-c2cc(C(C)C)c(O)cc2O)c1-c1ccc(CN2CCOCC2)cc1 [Luminespib] (partner 0.01 µM)
Summary of the method: as §1

Ibrutinib + Tozasertib = compound: C=CC(=O)N1CCC[C@@H](n2nc(-c3ccc(Oc4ccccc4)cc3)c3c(N)ncnc32)C1 [Ibrutinib] + Cc1cc(Nc2cc(N3CCN(C)CC3)nc(Sc3ccc(NC(=O)C4CC4)cc3)n2)n[nH]1 [Tozasertib] (partner 0.1 µM)
Summary of the method: as §1

BMX-IN-1 + Tozasertib = compound: C=CC(=O)Nc1cc(-n2c(=O)ccc3cnc4ccc(-c5ccc(NS(C)(=O)=O)cc5)cc4c32)ccc1C [BMX-IN-1] + Cc1cc(Nc2cc(N3CCN(C)CC3)nc(Sc3ccc(NC(=O)C4CC4)cc3)n2)n[nH]1 [Tozasertib] (partner 0.1 µM)
Summary of the method: as §1

Row | Cell Line | relative viability (BMX-IN-1 + OSI-027; first compound 0.02 µM) | relative viability (BMX-IN-1 + OSI-027; first compound 0.2 µM) | relative viability (BMX-IN-1 + OSI-027; first compound 0.6325 µM) | relative viability (BMX-IN-1 + OSI-027; first compound 2 µM) | relative viability (BMX-IN-1 + Luminespib; first compound 0.02 µM) | relative viability (BMX-IN-1 + Luminespib; first compound 0.2 µM) | relative viability (BMX-IN-1 + Luminespib; first compound 0.6325 µM) | relative viability (BMX-IN-1 + Luminespib; first compound 2 µM) | relative viability (Ibrutinib + Tozasertib; first compound 0.005 µM) | relative viability (Ibrutinib + Tozasertib; first compound 0.01581 µM) | relative viability (Ibrutinib + Tozasertib; first compound 0.05 µM) | relative viability (Ibrutinib + Tozasertib; first compound 0.1581 µM) | relative viability (Ibrutinib + Tozasertib; first compound 0.5 µM) | relative viability (BMX-IN-1 + Tozasertib; first compound 0.02 µM) | relative viability (BMX-IN-1 + Tozasertib; first compound 0.2 µM) | relative viability (BMX-IN-1 + Tozasertib; first compound 0.6325 µM) | relative viability (BMX-IN-1 + Tozasertib; first compound 2 µM)
1 | NCI-H1650 | 0.69 | 0.544 | 0.84 | 0.606 | 0.205 | 0.198 | 0.221 | 0.203 | 0.329 | 0.36 | 0.4 | 0.394 | 0.302 | 0.374 | 0.503 | 0.364 | 0.41
2 | NCI-H1651 | 0.9 | 0.426 | 0.782 | 0.582 | 1.12 | 0.911 | 1.05 | 0.773 | 0.558 | 0.7 | 0.757 | 0.668 | 0.944 | 0.848 | 1 | 0.735 | 0.731
3 | NCI-H1666 | 0.948 | 1.01 | 0.843 | 0.951 | 1.05 | 1.08 | 1.04 | 1 | 0.628 | 0.59 | 0.602 | 0.583 | 0.536 | 0.595 | 0.57 | 0.624 | 0.593
4 | NCI-H1734 | 0.709 | 0.64 | 0.632 | 0.621 | 0.199 | 0.213 | 0.202 | 0.147 | 0.272 | 0.245 | 0.299 | 0.257 | 0.257 | 0.292 | 0.285 | 0.256 | 0.229
5 | NCI-H1755 | 0.685 | 0.787 | 0.765 | 0.721 | 0.525 | 0.387 | 0.502 | 0.597 | 0.628 | 0.574 | 0.695 | 0.613 | 0.528 | 0.493 | 0.578 | 0.577 | 0.519
6 | NCI-H1793 | 0.271 | 0.281 | 0.324 | 0.332 | 0.172 | 0.167 | 0.167 | 0.204 | – | 0.288 | 0.254 | 0.462 | 0.208 | 0.311 | 0.285 | 0.311 | 0.303
7 | NCI-H1915 | 0.647 | 0.714 | 0.805 | 0.619 | 0.912 | 1.14 | 0.785 | 0.751 | 0.498 | 0.439 | 0.447 | 0.485 | 0.428 | 0.438 | 0.586 | 0.504 | 0.445
8 | NCI-H1944 | 0.417 | 0.405 | 0.502 | 0.452 | 0.812 | 0.729 | 0.728 | 0.706 | 0.247 | 0.217 | 0.21 | 0.24 | 0.198 | 0.279 | 0.254 | 0.236 | 0.244
